The results in this text go back to publication PMC6309939 (Pain, 2019).

In general, EC50 refers to the concentration at which the effect is half-maximal.

Each structure is given as a SMILES string.

The target in this experiment is human α4β3δ GABAA receptor (β3 subunit) (Homo sapiens, UniProt P28472). Kind of experiment: two-electrode voltage clamp in oocytes, potentiation of GABA EC10 currents. The format is cell-based. A general note: Two-electrode voltage clamp is typically applied to oocytes expressing channels or transporters.
human α4β3δ GABAA receptor (β3 subunit), sequence (P28472 26-473): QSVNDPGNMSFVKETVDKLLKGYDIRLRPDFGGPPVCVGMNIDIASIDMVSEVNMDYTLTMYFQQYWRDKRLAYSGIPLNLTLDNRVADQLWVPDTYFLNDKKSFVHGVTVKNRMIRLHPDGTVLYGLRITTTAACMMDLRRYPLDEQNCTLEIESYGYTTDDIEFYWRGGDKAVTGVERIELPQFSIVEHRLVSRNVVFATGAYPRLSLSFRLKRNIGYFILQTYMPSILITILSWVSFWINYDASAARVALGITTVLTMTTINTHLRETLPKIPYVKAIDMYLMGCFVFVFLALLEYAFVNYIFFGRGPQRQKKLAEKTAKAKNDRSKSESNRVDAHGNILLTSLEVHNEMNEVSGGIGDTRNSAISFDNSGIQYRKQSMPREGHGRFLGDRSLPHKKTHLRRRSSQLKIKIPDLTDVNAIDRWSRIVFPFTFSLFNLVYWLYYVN
human α4β3δ GABAA receptor (β3 subunit), sequence (P48169 36-554 partner): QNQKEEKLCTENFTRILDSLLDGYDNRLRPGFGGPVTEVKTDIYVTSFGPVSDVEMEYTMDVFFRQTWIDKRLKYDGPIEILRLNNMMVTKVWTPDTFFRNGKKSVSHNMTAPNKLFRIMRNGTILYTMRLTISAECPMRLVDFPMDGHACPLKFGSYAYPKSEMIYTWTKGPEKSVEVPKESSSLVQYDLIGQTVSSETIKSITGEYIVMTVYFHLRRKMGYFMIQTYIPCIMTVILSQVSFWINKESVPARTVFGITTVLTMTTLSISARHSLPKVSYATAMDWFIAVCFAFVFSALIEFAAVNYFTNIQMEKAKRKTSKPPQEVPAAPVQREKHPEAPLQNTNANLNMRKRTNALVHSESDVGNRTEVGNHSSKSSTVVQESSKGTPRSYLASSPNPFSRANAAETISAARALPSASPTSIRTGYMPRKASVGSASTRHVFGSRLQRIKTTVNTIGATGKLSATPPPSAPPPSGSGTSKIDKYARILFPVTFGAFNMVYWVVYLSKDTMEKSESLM
human α4β3δ GABAA receptor (β3 subunit), sequence (O14764 25-452 partner): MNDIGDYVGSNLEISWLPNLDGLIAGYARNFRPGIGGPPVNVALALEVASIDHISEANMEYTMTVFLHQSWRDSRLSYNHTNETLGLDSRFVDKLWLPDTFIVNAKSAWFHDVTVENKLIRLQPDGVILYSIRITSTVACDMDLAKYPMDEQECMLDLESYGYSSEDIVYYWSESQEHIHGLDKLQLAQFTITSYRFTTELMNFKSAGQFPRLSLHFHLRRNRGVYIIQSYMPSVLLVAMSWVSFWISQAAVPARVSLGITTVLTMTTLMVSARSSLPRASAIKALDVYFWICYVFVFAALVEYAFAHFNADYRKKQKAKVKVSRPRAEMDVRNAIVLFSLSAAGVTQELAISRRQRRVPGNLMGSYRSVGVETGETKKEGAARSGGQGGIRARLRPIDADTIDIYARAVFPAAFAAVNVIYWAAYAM

Turning to `CC(=O)[C@H]1CC[C@H]2[C@@H]3CC[C@H]4C[C@H](O)CC[C@]4(C)[C@H]3CC[C@]12C` [ALLO, allopregnanolone], the EC50 was determined as 520 nM.
